Columns and labels:
[1] = Intraocular distribution and retention after topical instillation; type: in vivo, mouse; conditions: for presence (retention) in the mice vitreous humor: FITC-labeled peptide eye drops, fluorescence of vitreous humor at different time points, n = 3 (each sample from 5 mice); for intraocular distribution of fluorescence after topical instillation: FITC-labeled peptide, 10 µL eye drop once, 12 h after instillation, fluorescence and LC/MS
Description: To study the intraocular distribution of the FITC‐labeled SSP‐1 and SSP‐2 after topical instillation, fluorescence observation and liquid chromatography‐mass spectrometry (LC/MS) were performed on the entire eyes of mice, the frozen sections of the eyes, and their vitreous humor (Figure 7A–D). […] The topical instillation of SSP eye drop was instilled once with 10 µL before fluorescence observation. However, intraocular injection was administrated once with the maximum volume of 2 µL to avoid overdose induced high intraocular pressure due to the limited volume of the vitreous cavity. […] Next, we studied the intraocular pharmacokinetics of SSP‐1 and SSP‐2 after topical instillation. […] Moreover, we established an in vitro blood‐retina barrier (BRB) model to investigate the transferring efficiency of SSP‐1 and SSP‐2 across the posterior ocular absorption barriers. […]
Intraocular Distribution of FG/FH. Male mice (20-25 g) derived from Charles River (Beijing, China) were used in this experiment. 10 μL FITC-labeled FH or FG (dissolved in artificial tear fluid, 20 nM) were gently dripped in the conjunctival sac.
The upper and lower eyelids were massaged to make homodisperse on the eye surface. After 12h FITC-labeled FH or FG were instilled, the mice were sacrificed and the eyeballs were wash in the PBS solution. luminescence signal was detected via the In-Vivo FX PRO system (Bruker).
(§1) Statistical analysis. Statistical analysis was conducted using Graphpad Prism 8.0 software. All data were expressed by mean ± SD. Unpaired two-tailed Student’s t-test (two groups) or one-way ANOVA (more than 2 groups) was used to analyze the statistical significances of the data. Person’s correlation analysis was conducted to […]

[2] = system: OIR model; assay: Oxygen-induced retinopathy (OIR) model, pathological retinal neovascularization; type: in vivo, mouse; conditions: for reduction of pathological retinal neovascularization by eye drops plus anti-VEGF injection compared with anti-VEGF injection alone: isolectin B4, anti-VEGF antibody 2 µg intravitreal at P12, eye drops twice a day until P17, on average
Description: follows: 5’-[…]-3’, 5’- […]
OIR. OIR model was performed as previously described. The pups and their mothers […]
were exposed to 75% oxygen at 7-12 days after birth, and then exposed to indoor air […]
for another 5 days. At P17, the mice were anesthetized and sacrificed, and the retinas […]
Isolectin B4. Isolectin B4 staining for retinal blood vessel visualization is as […]
described above. After fixing the eyeball with 4% paraformaldehyde (overnight at 4 […]
degrees), the intact retina was peeled off using microscissors and micro tweezers.
After rupture of the membrane with 2% Triton X-100, the retina was placed in the […]
configured isolectin B4 staining (1:100) overnight at 4 degrees. Acquire multiple […]
overlapping (10-20% overlap) images using a fluorescence microscope and merge […]
them together in Adobe Photoshop to visualize the entire retina. Use ImageJ software to quantify the area of pathological neovascularization relative to the total retinal area. […]
as §1

[3] = TEM morphology and size of SSP nanostructures; type: physicochemical; conditions: for morphology after incubation with sSema4D: sSema4D 6 h, room temperature, mass ratio sSema4D/SSP 1/1000
Description: TP-1 to TP-12, SSP-1 and SSP-2 […]
were purchased by GL Biochem (Shanghai) Ltd.
Preparation of peptide-based nanomaterials. SSP-1 or SSP-2 monomers were dissolved in artificial tears at a concentration of 4.0 mM and sonicated for 30 min, followed by quick injection into water at a volume ratio of 1:200 for artificial tears and H2O to obtain the nanomaterials solution (20 μM).
TEM for the morphology. The SSP-1 or SSP-2 solution with the concentration of 20 μM (10 μL) was placed dropwise onto a copper mesh for 5 min, then most of the liquid was removed through a filter paper. Uranyl acetate solution (10 μL) were employed to stain the samples for 5 min, followed by drying the spare liquid with the filter. Finally, the copper mesh was washed with 10 μL of deionized water, which was blotted after staining and drying at room temperature. All of the samples were observed by TEM (Tecnai G2 20 S-TWIN) at an accelerating voltage of 120 kV. […]

[4] = Zeta potential of SSPs; type: physicochemical; conditions: self-assembled SSP under aqueous condition
Description: Artificial tears containing SSPs were developed and dropped into eyes. SSPs accumulated in the vitreous cavity. To examine the behavior of SSPs monomer in artificial tear, it was fast injected into water. Under the aqueous condition, the SSPs self‐assembled into spherical NPs or nanorods, a function of its to C16 and FFVLK domains with a hydrophobic unit. The morphology of SSP‐1 was NPs with the average size of 44.8 ± 2.9 nm. […] Besides, the zeta potential of SSP‐1 and SSP‐2 was positive charged with the value of 45.7 and 40.2 mV, respectively (Figure 3C). The positive charged SSPs penetrate blood‐eye barrier well.
In addition, KLVFF sequence, a sheet structure with strong hydrogen‐bonding was introduced into SSPs, we could distinctly observe the secondary structure of SSPs by circular dichroism (CD) spectroscopy. […] The percentage of β‐sheet after incubation with sSema4D in SSP‐1 and SSP‐2 were 85.6% and 42.3%, respectively, indicative of a highly organized packing of NFs in SSP‐1. […] The high percentage of β‐sheet structure in NFs stabilized the formation of nanostructure networks, due to its strong hydrogen‐bonding KLVFF sequence. Moreover, we carried out the cytotoxicity of SSP‐1 and SSP‐2 by using a standard CCK‐8 (Figure 3D). […] Finally, we investigated the recognition of sSema4D and SSP‐1 and SSP‐2 by confocal laser scanning microscope (CLSM).

[5] = system: STZ model; assay: STZ-induced retinopathy model, retinal vascular leakage; type: in vivo, mouse; conditions: for reduction of retinal vascular leakage by eye drops plus anti-VEGF injection compared with anti-VEGF injection alone: Evans blue, anti-VEGF antibody 2 µg intravitreal at third month, eye drops twice a day for 30 d, on average; for reduction of retinal vascular leakage by eye drops plus anti-VEGF injection compared with anti-VEGF injection alone / vascular leakage (Evans blue assay): n = 9; for diabetes-induced retinal acellular capillary formation: eye drops 10 µL per eye twice daily for 30 d, PDGFRb/collagen IV staining, n = 6
Description: follows: 5’-[…]-3’, 5’-
STZ. Eight-week-old male C57BL/6 mice were starved for 4 hours before each […]
injection of streptozotocin (STZ, Sigma, St. Louis, MO), and then injected with STZ […]
(50 mg/kg) for 5 consecutive days. Mice in the vehicle control group were […]
intraperitoneally injected with citrate buffer for 5 consecutive days. A blood glucose […]
meter (ONETOUCH, Johnson & Johnson, USA) was used to evaluate the fasting […]
blood glucose of the mice 7 days after the last injection of STZ. Mice with blood […]
glucose levels greater than or equal to 16.7 mM were considered successful in STZ […]
modeling. […]
Evans blue assay. Mice were intraperitoneally injected with Evans Blue dye (200 mg/kg) and circulated for 5 hours. The mice were perfused with PBS, and the eyes were fixed with 4% PFA at 4 degrees Celsius for 12 hours, and the retina was separated. Some retinas are tested for Evans Blue fluorescence using a fluorescence microscope. Adding formamide (70 μL/piece) to the rest of the retina and incubate overnight at 70°C to extract the […]. Detect the absorbance of formamide at 620/740 nm (background) with a microplate reader. Calculate the content of Evans blue in the retina from the standard curve, and then standardize it based on the weight of the retina and the content of Evans blue in the blood. […]
as §1

[6] = eye drops 5 µL per eye twice daily P12 to P17, n = 8, equal to intraocular anti-Sema4D antibody
[7] = eye drops 5 µL per eye twice daily P12 to P17, vs littermate controls, n = 7
[8] = intravitreal injection at P12, retinas at P17, n = 8, effect equal to Sema4D antibody
[9] = intravitreal injection at P12, retinas at P17, vs littermate controls, n = 6
[10] = self-assembled in water, 20 μM, without sSema4D
[11] = eye drops 10 µL per eye twice daily for 30 d after third month since diabetes induction, equal to intraocular anti-Sema4D antibody
[12] = intravitreal injection at third month since diabetes induction, retinas at fourth month, similar to anti-Sema4D antibody

| Substance | presence (retention) in the mice vitreous humor [1] | intraocular distribution of fluorescence after topical instillation [1] | pathological retinal vascular neovascularization (isolectin B4 staining) [2, 6] | numbers of preretinal neovascular cells [2, 7] | pathological retinal vascular neovascularization (isolectin B4 staining) [2, 8] | numbers of preretinal neovascular cells [2, 9] | reduction of pathological retinal neovascularization by eye drops plus anti-VEGF injection compared with anti-VEGF injection alone [2] | morphology after incubation with sSema4D [3] | average length of nanorods [3, 10] | zeta potential [4] | reduction of retinal vascular leakage by eye drops plus anti-VEGF injection compared with anti-VEGF injection alone [5] | diabetes-induced retinal acellular capillary formation [5] | vascular leakage (Evans blue assay) [5, 11] | vascular leakage (Evans blue assay) [5, 12] | average size of NPs [3, 10] |
| --- | --- | --- | --- | --- | --- | --- | --- | --- | --- | --- | --- | --- | --- | --- | --- |
| C16‐FFVLK‐KNKAAKG [SSP-2, smart supramolecular peptide, C16‐FFVLK‐KNKAAKG, self-assembling, captures sSema4D] | up to 5 days | mainly in the retina and vitreous humor | decreased | significantly decreased | decreased | significantly reduced | 22.68% | long‐size of nanofibrillar structures | 190 ± 23.9 nm | 40.2 mV | 15.49% | ameliorated | significantly decreased | significantly decreased | – |
| C16‐FFVLK‐KQKRPRH [SSP-1, smart supramolecular peptide, C16‐FFVLK‐KQKRPRH, self-assembling, captures sSema4D] | up to 5 days | mainly in the retina and vitreous humor | decreased | significantly decreased | decreased | significantly reduced | 25.72% | dense NFs network structures | – | 45.7 mV | 20.21% | ameliorated | significantly decreased | significantly decreased | 44.8 ± 2.9 nm |
